Assay results: patent US5780474A, “3-(piperid-4-yl)-1,2-benzisoxazole and 3-(piperazin-4-yl)-1,2-benzisoxazole compounds” (Adir et Compagnie, priority 1996, dated 1998)

Legend:
[1] = test system: conditioned avoidance response; test: Active avoidance conditioning in the rat; type: in vivo; settings: sc, administered subcutaneously 30 minutes before the session, read-out: ID50 conditioned avoidance responses
Description: 2. Active avoidance conditioning in the rat
This test is conventionally used to characterise anti-psychotic products, cf. P. A. Janssen, C. J. E. Niemegeers, Arzneim-Forsch., 1037-1043 (1961).
It is carried out in a cage having two compartments with an electrified floor, on rats that have been conditioned in the following manner: on presentation of a light signal, the animal must move from the compartment in which it is situated to the other compartment in order not to receive an electric shock. The response of the animal to the light signal is a conditioned Avoidance response. […] The response to the electric shock is an unconditioned Escape response.
Conventionally, anti-psychotic products inhibit the conditioned Avoidance response at doses lower than those which inhibit the non-conditioned Escape response. That differentiates them from other classes of products (in particular, barbiturates and benzodiazepines), which inhibit both responses alike. […]
Test: the animals are their own controls. […] The effects of a product on the avoidance responses are evaluated during a Test Session which takes places the day after a Control Session during the course of which the animals will have received the solvent. […]

[2] = test system: aggressiveness in isolated mice; test: Test of aggressiveness in isolated mice; type: in vivo; settings: Mus musculus, sc, administered subcutaneously 30 minutes before test, read-out: ID50 number or duration of the attacks
Source text: 3. Test of aggressiveness in isolated mice
This test allows the evaluation of the intraspecies anti-aggressive activity of a product in mice that have been kept in isolation for several months.
Animals: The test uses male CD mice (Charles River) weighing from 22 to 25 g on arrival at the animal house. Immediately on arrival the animals are isolated in individual cages made of opaque black polycarbonate (23×14×13 cm) having a grill lid, and are housed for a prolonged period (approximately 6 months) in the experimentation room.
Selection of pairs of mice: The selection of pairs of aggressive mice that will be used on a long-term basis in the study starts after the animals have been isolated for one month. Once or twice per week a mouse from another cage (intruder) is placed in the cage of a (resident) mouse and the two animals are observed to see if they attack one another (sniffing, pursuing, nipping, biting) during that trial. At the end of the trial (maximum duration of 10 minutes), each mouse is isolated again in its own cage. If attacks have occurred, the same pair will be tested again in the next trial; if there have been no attacks, each mouse of that pair will be placed in the presence of a different mouse in the following trial. […]

[3] = test system: verticalisation induced by apomorphine; test: Verticalisation induced by apomorphine in the mouse; type: in vivo; settings: sc, product s.c. 30 min before apomorphine 0.75 mg/kg s.c., read-out: ID50 verticalisation
Description: 1. Verticalisation induced by apomorphine (0.75 mg/kg, s.c.) in the mouse
This test, described by Protais et al., Psychopharmacology, 50, 1-6 (1976), allows the evaluation of the dopaminergic antagonist activity of possible anti-psychotic products. A mouse to which apomorphine has been administered and which has been placed in a cage with vertical bars will, most of the time, remain immobile at the top of the cage, clinging by its four paws to the bars. This verticalisation behaviour is blocked if a dopaminergic antagonist product has been administered before the apomorphine.
Test immediately after subcutaneous (s.c.) administration of the product or solvent (control group), the mouse is placed in a cylindrical cage (14 cm diam.×14 cm height) with vertical bars. Thirty minutes later, the animal receives the dose of apomorphine (0.75 mg/kg, s.c.). […]
Statistical analysis: The effect of the product on verticalisation is evaluated by comparing the scores obtained for each group that has received a dose of product with those obtained for the control group (solvent) using a Mann and Whitney U test with a probability of p<0.05. […]

[4] = in vivo; settings: rat
Source text: Induction of catalepsy in the rat
Test: the animals are placed in individual cages and food is withdrawn the day before the test, but drink is taken as desired. The catalepsy test comprises placing each rear paw of the animal on the front paw of the same side and measuring the time (seconds) during which the animal remains in that "crossed paws" position (maximum 30 seconds). Each animal is subjected to three successive tests (one every two minutes), the animal being removed from its cage and placed on the work surface. The tests are carried out one hour after the subcutaneous injection or oral administration of the product or its solvent. The average value of the three tests represents the duration of the catalepsy (in seconds) for each animal. There are five or six rats per experimental group.
Statistical analysis: The effect of the product on the duration of catalepsy is evaluated by an ANOVA, followed by a Dunnett's test, with a probability of p<0.05.

Row | ED50 at 1 h [4] | ED50 at 1 h ([4]; sc) | Structure (SMILES) | ED50 [1] | ED50 [2] | ED50 [3]
1 | 34 mg/kg |  | O=C1N(CCN2CCC(c3noc4cc(F)ccc34)CC2)CCN1c1ccccc1 [Example 5, 1-{2-[4-(6-Fluoro-1,2-benzisoxazol-3-yl)piperid-1-yl]ethyl}-3-phenylimidazolidin-2-one] | 0.88 mg/kg | 0.18 mg/kg | 0.22 mg/kg
2 |  | 0.15 mg/kg | O=C(CCCN1CCC(O)(c2ccc(Cl)cc2)CC1)c1ccc(F)cc1 [haloperidol, reference compound] |  |  | 
